This passage reports Ki results from patent US8053553B2, “Targeting host proteinases as a therapeutic strategy against viral and bacterial pathogens” (Socpra Sciences Sante Et Humaines, priority 2007, dated 2011).

The pKi is −log10 of the Ki, conventionally taken in molar units.

pKi: −log10 of the molar value. Non-standard residues stand in square brackets, D forms with d. Residues, ends and D or L forms follow the SMILES beside them. Sar = CNCC(=O)O

T1 sequence (P09958 108-794 limits assumed): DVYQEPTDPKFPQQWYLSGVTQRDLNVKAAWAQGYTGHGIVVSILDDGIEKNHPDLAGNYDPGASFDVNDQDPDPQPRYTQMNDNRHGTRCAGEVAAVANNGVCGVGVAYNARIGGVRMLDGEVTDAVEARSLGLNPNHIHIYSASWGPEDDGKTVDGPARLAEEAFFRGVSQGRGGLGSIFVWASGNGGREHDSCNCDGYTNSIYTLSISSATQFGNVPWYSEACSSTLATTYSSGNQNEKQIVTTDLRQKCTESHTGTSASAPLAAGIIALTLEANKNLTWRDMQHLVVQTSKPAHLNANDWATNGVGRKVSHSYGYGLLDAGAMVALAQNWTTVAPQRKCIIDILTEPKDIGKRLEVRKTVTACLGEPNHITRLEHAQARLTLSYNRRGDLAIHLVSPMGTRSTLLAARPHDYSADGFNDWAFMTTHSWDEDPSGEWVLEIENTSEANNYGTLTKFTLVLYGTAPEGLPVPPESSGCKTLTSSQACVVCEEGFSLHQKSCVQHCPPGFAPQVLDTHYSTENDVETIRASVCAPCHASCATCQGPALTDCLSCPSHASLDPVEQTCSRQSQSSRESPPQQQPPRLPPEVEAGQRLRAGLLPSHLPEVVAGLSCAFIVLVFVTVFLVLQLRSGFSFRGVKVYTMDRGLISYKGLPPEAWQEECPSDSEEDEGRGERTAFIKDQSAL

This assay concerns the target T1, furin (Homo sapiens, UniProt P09958).
T1 construct: made in house; host or cells: Drosophila S2 cells (Invitrogen expression system)
The assay can be described thus: biochemical. The following applies: furin, Pyr-RTKR-AMC substrate; alanine scanning mutagenesis of the H5 furin cleavage sequence (Table 2); read-out: Ki.
In the case of `C[C@H](NC(=O)[C@H](C)NC(=O)[C@H](CCC(=O)O)NC(=O)[C@H](CCCNC(=N)N)NC(=O)[C@@H]1CCCN1C(=O)[C@@H](N)[C@@H](C)O)C(=O)N[C@@H](C)C(=O)N[C@@H](CCCCN)C(=O)N[C@@H](CCCCN)C(=O)N[C@@H](CCCNC(=N)N)C(=O)NCC(N)=O` (H-TPREAAAKKRG-NH2), the pKi was less than 7.00.
Take `CC(C)[C@H](NC(=O)[C@H](CCCNC(=N)N)NC(=O)[C@H](CCCCN)NC(=O)[C@H](CCCCN)NC(=O)[C@H](C)NC(=O)[C@H](C)NC(=O)[C@H](C)NC(=O)[C@H](CCC(=O)O)NC(=O)[C@H](CCCNC(=N)N)NC(=O)[C@@H]1CCCN1C(=O)[C@@H](N)[C@@H](C)O)C(N)=O` (H-TPREAAAKKRV-NH2): the pKi is less than 7.00.
`C[C@H](NC(=O)[C@H](C)NC(=O)[C@H](CCC(=O)O)NC(=O)[C@H](CCCNC(=N)N)NC(=O)[C@@H]1CCCN1C(=O)[C@@H](N)[C@@H](C)O)C(=O)N[C@@H](C)C(=O)N[C@@H](CCCCN)C(=O)N[C@@H](CCCCN)C(=O)N[C@@H](CCCNC(=N)N)C(=O)N(C)CC(N)=O` (H-TPREAAAKKR[Sar]-NH2): the pKi is less than 7.00.
Consider `C[C@H](NC(=O)[C@H](C)NC(=O)[C@H](CCC(=O)O)NC(=O)[C@H](CCCNC(=N)N)NC(=O)[C@@H]1CCCN1C(=O)[C@@H](N)[C@@H](C)O)C(=O)N[C@@H](CCCNC(=N)N)C(=O)N[C@@H](CCCCN)C(=O)N[C@@H](CCCCN)C(=O)N[C@@H](CCCNC(=N)N)C(N)=O` (H-TPREAARKKR-NH2), for which the pKi was less than 7.00.
The result for `C[C@H](NC(=O)[C@H](C)NC(=O)[C@H](CCC(=O)O)NC(=O)[C@H](CCCNC(=N)N)NC(=O)[C@@H]1CCCN1C(=O)[C@@H](N)[C@@H](C)O)C(=O)N[C@@H](CCCNC(=N)N)C(=O)N[C@@H](CCCCN)C(=O)N[C@@H](CCCCN)C(=O)N[C@@H](CCCNC(=N)N)C(=O)NCC(N)=O` (H-TPREAARKKRG-NH2) reads less than 7.00; that for `CC(C)[C@H](NC(=O)[C@H](CCCNC(=N)N)NC(=O)[C@H](CCCCN)NC(=O)[C@H](CCCCN)NC(=O)[C@H](CCCNC(=N)N)NC(=O)[C@H](C)NC(=O)[C@H](C)NC(=O)[C@H](CCC(=O)O)NC(=O)[C@H](CCCNC(=N)N)NC(=O)[C@@H]1CCCN1C(=O)[C@@H](N)[C@@H](C)O)C(N)=O` (H-TPREAARKKRV-NH2), less than 7.00.
The result for `C[C@H](NC(=O)[C@H](C)NC(=O)[C@H](CCC(=O)O)NC(=O)[C@H](CCCNC(=N)N)NC(=O)[C@@H]1CCCN1C(=O)[C@@H](N)[C@@H](C)O)C(=O)N[C@@H](CCCNC(=N)N)C(=O)N[C@@H](CCCCN)C(=O)N[C@@H](CCCCN)C(=O)N[C@@H](CCCNC(=N)N)C(=O)N(C)CC(N)=O` (H-TPREAARKKR[Sar]-NH2) reads less than 7.00.
Turning to `C[C@H](NC(=O)[C@H](CCC(=O)O)NC(=O)[C@H](CCCNC(=N)N)NC(=O)[C@@H]1CCCN1C(=O)[C@@H](N)[C@@H](C)O)C(=O)N[C@@H](CCCNC(=N)N)C(=O)N[C@@H](CCCNC(=N)N)C(=O)N[C@@H](CCCCN)C(=O)N[C@@H](CCCCN)C(=O)N[C@@H](CCCNC(=N)N)C(N)=O` (H-TPREARRKKR-NH2), the pKi is less than 7.00.
The result for `CC(C)[C@H](NC(=O)[C@H](CCCNC(=N)N)NC(=O)[C@H](CCCCN)NC(=O)[C@H](CCCCN)NC(=O)[C@H](CCCNC(=N)N)NC(=O)[C@H](CCCNC(=N)N)NC(=O)[C@H](C)NC(=O)[C@H](CCC(=O)O)NC(=O)[C@H](CCCNC(=N)N)NC(=O)[C@@H]1CCCN1C(=O)[C@@H](N)[C@@H](C)O)C(N)=O` (H-TPREARRKKRV-NH2) reads less than 7.00; that for `C[C@H](NC(=O)[C@H](CCC(=O)O)NC(=O)[C@H](CCCNC(=N)N)NC(=O)[C@@H]1CCCN1C(=O)[C@@H](N)[C@@H](C)O)C(=O)N[C@@H](CCCNC(=N)N)C(=O)N[C@@H](CCCNC(=N)N)C(=O)N[C@@H](CCCCN)C(=O)N[C@@H](CCCCN)C(=O)N[C@@H](CCCNC(=N)N)C(=O)N(C)CC(N)=O` (H-TPREARRKKR[Sar]-NH2), less than 7.00.
As to `C[C@H](NC(=O)[C@H](C)NC(=O)[C@H](CCCNC(=N)N)NC(=O)[C@H](CCC(=O)O)NC(=O)[C@H](CCCNC(=N)N)NC(=O)[C@@H]1CCCN1C(=O)[C@@H](N)[C@@H](C)O)C(=O)N[C@@H](CCCCN)C(=O)N[C@@H](CCCCN)C(=O)N[C@@H](CCCNC(=N)N)C(N)=O` (H-TPRERAAKKR-NH2), the pKi is less than 7.00.
For `C[C@H](NC(=O)[C@H](C)NC(=O)[C@H](CCCNC(=N)N)NC(=O)[C@H](CCC(=O)O)NC(=O)[C@H](CCCNC(=N)N)NC(=O)[C@@H]1CCCN1C(=O)[C@@H](N)[C@@H](C)O)C(=O)N[C@@H](CCCCN)C(=O)N[C@@H](CCCCN)C(=O)N[C@@H](CCCNC(=N)N)C(=O)NCC(N)=O` (H-TPRERAAKKRG-NH2), the pKi was less than 7.00.
On to `CC(C)[C@H](NC(=O)[C@H](CCCNC(=N)N)NC(=O)[C@H](CCCCN)NC(=O)[C@H](CCCCN)NC(=O)[C@H](C)NC(=O)[C@H](C)NC(=O)[C@H](CCCNC(=N)N)NC(=O)[C@H](CCC(=O)O)NC(=O)[C@H](CCCNC(=N)N)NC(=O)[C@@H]1CCCN1C(=O)[C@@H](N)[C@@H](C)O)C(N)=O` (H-TPRERAAKKRV-NH2), for which the pKi is less than 7.00.
Next, `C[C@H](NC(=O)[C@H](C)NC(=O)[C@H](CCCNC(=N)N)NC(=O)[C@H](CCC(=O)O)NC(=O)[C@H](CCCNC(=N)N)NC(=O)[C@@H]1CCCN1C(=O)[C@@H](N)[C@@H](C)O)C(=O)N[C@@H](CCCCN)C(=O)N[C@@H](CCCCN)C(=O)N[C@@H](CCCNC(=N)N)C(=O)N(C)CC(N)=O` (H-TPRERAAKKR[Sar]-NH2): less than 7.00; `C[C@H](NC(=O)[C@H](CCCNC(=N)N)NC(=O)[C@H](CCC(=O)O)NC(=O)[C@H](CCCNC(=N)N)NC(=O)[C@@H]1CCCN1C(=O)[C@@H](N)[C@@H](C)O)C(=O)N[C@@H](CCCNC(=N)N)C(=O)N[C@@H](CCCCN)C(=O)N[C@@H](CCCCN)C(=O)N[C@@H](CCCNC(=N)N)C(N)=O` (H-TPRERARKKR-NH2): less than 7.00; `CC(C)[C@H](NC(=O)[C@H](CCCNC(=N)N)NC(=O)[C@H](CCCCN)NC(=O)[C@H](CCCCN)NC(=O)[C@H](CCCNC(=N)N)NC(=O)[C@H](C)NC(=O)[C@H](CCCNC(=N)N)NC(=O)[C@H](CCC(=O)O)NC(=O)[C@H](CCCNC(=N)N)NC(=O)[C@@H]1CCCN1C(=O)[C@@H](N)[C@@H](C)O)C(N)=O` (H-TPRERARKKRV-NH2): less than 7.00.
In the case of `C[C@H](NC(=O)[C@H](CCCNC(=N)N)NC(=O)[C@H](CCC(=O)O)NC(=O)[C@H](CCCNC(=N)N)NC(=O)[C@@H]1CCCN1C(=O)[C@@H](N)[C@@H](C)O)C(=O)N[C@@H](CCCNC(=N)N)C(=O)N[C@@H](CCCCN)C(=O)N[C@@H](CCCCN)C(=O)N[C@@H](CCCNC(=N)N)C(=O)N(C)CC(N)=O` (H-TPRERARKKR[Sar]-NH2), the negative-log Ki (pKi) was less than 7.00.
Next, `C[C@H](NC(=O)[C@H](C)NC(=O)[C@H](CCCNC(=N)N)NC(=O)[C@H](CCCNC(=N)N)NC(=O)[C@H](CCC(=O)O)NC(=O)[C@H](CCCNC(=N)N)NC(=O)[C@@H]1CCCN1C(=O)[C@@H](N)[C@@H](C)O)C(=O)N[C@@H](CCCCN)C(=O)N[C@@H](CCCNC(=N)N)C(N)=O` (H-TPRERRAAKR-NH2): less than 7.00; `C[C@H](NC(=O)[C@H](C)NC(=O)[C@H](CCCNC(=N)N)NC(=O)[C@H](CCCNC(=N)N)NC(=O)[C@H](CCC(=O)O)NC(=O)[C@H](CCCNC(=N)N)NC(=O)[C@@H]1CCCN1C(=O)[C@@H](N)[C@@H](C)O)C(=O)N[C@@H](CCCCN)C(=O)N[C@@H](CCCNC(=N)N)C(=O)NCC(N)=O` (H-TPRERRAAKRG-NH2): less than 7.00; `CC(C)[C@H](NC(=O)[C@H](CCCNC(=N)N)NC(=O)[C@H](CCCCN)NC(=O)[C@H](C)NC(=O)[C@H](C)NC(=O)[C@H](CCCNC(=N)N)NC(=O)[C@H](CCCNC(=N)N)NC(=O)[C@H](CCC(=O)O)NC(=O)[C@H](CCCNC(=N)N)NC(=O)[C@@H]1CCCN1C(=O)[C@@H](N)[C@@H](C)O)C(N)=O` (H-TPRERRAAKRV-NH2): less than 7.00.
Take `C[C@H](NC(=O)[C@H](C)NC(=O)[C@H](CCCNC(=N)N)NC(=O)[C@H](CCCNC(=N)N)NC(=O)[C@H](CCC(=O)O)NC(=O)[C@H](CCCNC(=N)N)NC(=O)[C@@H]1CCCN1C(=O)[C@@H](N)[C@@H](C)O)C(=O)N[C@@H](CCCCN)C(=O)N[C@@H](CCCNC(=N)N)C(=O)N(C)CC(N)=O` (H-TPRERRAAKR[Sar]-NH2): the negative-log Ki (pKi) was less than 7.00.
Next, `C[C@H](NC(=O)[C@H](CCCNC(=N)N)NC(=O)[C@H](CCCNC(=N)N)NC(=O)[C@H](CCC(=O)O)NC(=O)[C@H](CCCNC(=N)N)NC(=O)[C@@H]1CCCN1C(=O)[C@@H](N)[C@@H](C)O)C(=O)N[C@@H](CCCCN)C(=O)N[C@@H](CCCCN)C(=O)N[C@@H](CCCNC(=N)N)C(N)=O` (H-TPRERRAKKR-NH2): less than 7.00.
As for `CC(C)[C@H](NC(=O)[C@H](CCCNC(=N)N)NC(=O)[C@H](CCCCN)NC(=O)[C@H](CCCCN)NC(=O)[C@H](C)NC(=O)[C@H](CCCNC(=N)N)NC(=O)[C@H](CCCNC(=N)N)NC(=O)[C@H](CCC(=O)O)NC(=O)[C@H](CCCNC(=N)N)NC(=O)[C@@H]1CCCN1C(=O)[C@@H](N)[C@@H](C)O)C(N)=O` (H-TPRERRAKKRV-NH2), the pKi was less than 7.00.
Next, `C[C@H](NC(=O)[C@H](CCCNC(=N)N)NC(=O)[C@H](CCCNC(=N)N)NC(=O)[C@H](CCC(=O)O)NC(=O)[C@H](CCCNC(=N)N)NC(=O)[C@@H]1CCCN1C(=O)[C@@H](N)[C@@H](C)O)C(=O)N[C@@H](CCCCN)C(=O)N[C@@H](CCCCN)C(=O)N[C@@H](CCCNC(=N)N)C(=O)N(C)CC(N)=O` (H-TPRERRAKKR[Sar]-NH2): less than 7.00; `CC(C)[C@H](NC(=O)[C@H](CCCNC(=N)N)NC(=O)[C@H](C)NC(=O)[C@H](C)NC(=O)[C@H](CCCNC(=N)N)NC(=O)[C@H](CCCNC(=N)N)NC(=O)[C@H](CCCNC(=N)N)NC(=O)[C@H](CCC(=O)O)NC(=O)[C@H](CCCNC(=N)N)NC(=O)[C@@H]1CCCN1C(=O)[C@@H](N)[C@@H](C)O)C(N)=O` (H-TPRERRRAARV-NH2): less than 7.00.
Turning to `C[C@H](NC(=O)[C@H](CCCNC(=N)N)NC(=O)[C@H](CCCNC(=N)N)NC(=O)[C@H](CCCNC(=N)N)NC(=O)[C@H](CCC(=O)O)NC(=O)[C@H](CCCNC(=N)N)NC(=O)[C@@H]1CCCN1C(=O)[C@@H](N)[C@@H](C)O)C(=O)N[C@@H](CCCCN)C(=O)N[C@@H](CCCNC(=N)N)C(N)=O` (H-TPRERRRAKR-NH2), the pKi is less than 7.00.
